The assay has as its system CEM cells HIV-1 protection, formazan growth assay. Put plainly: NCI AIDS Antiviral Assay. Conditions: for IC50: measured here: growth of uninfected CEM cells. The method, boiled down: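 Protection of CEM cells against HIV-1 measured as cell growth via soluble formazan read-out, with five concentrations tested on both infected and uninfected cells; failure to protect may reflect toxicity.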

Activity calls are given as the source filed them.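 The calls were made as follows: active = compounds giving half or more protection of infected cells from virus-caused growth loss, again on retest; inactive = the rest.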

For the molecule `CCC[C@H]1C(=O)N=C(N)N1C(=O)OCc1ccccc1`, the EC50 was more than 200 µM and the IC50 was more than 200 µM.
Regarding `CCCCCCCC(=O)c1ccc(O)c(C(=O)Nc2cccc(C(F)(F)F)c2)c1`, the EC50 was more than 12.9 µM and the IC50 stood at 0.145 µM.
In the case of `O=C1NC2(CCCCC2)C2=C1CCCCC2`, the outcome was inactive.
As to `Cc1cc[n+]2cc(-c3ccc(/C=N/N=C(N)N)cc3)n(C)c2c1`, the EC50 is 52.5 µM and the IC50 amounted to 55 µM.
On to `Cc1cc(C)nc(NS(=O)(=O)c2ccc(NC(=O)c3cccc4c(Nc5ccc(S(=O)(=O)Nc6cc(C)on6)cc5)c5ccccc5nc34)cc2)n1`, for which the EC50 is more than 35.5 µM and the IC50 was more than 35.5 µM.
Take `Cc1cc(CO)c(O)c(CN(CCO)CCO)c1`: the EC50 is more than 200 µM and the IC50 was 20.4 µM.
As to `O=[N+]([O-])c1ccc(N2N=C(c3ccc4ccccc4c3O)CC2c2ccc(Cl)cc2)c([N+](=O)[O-])c1` (centres undefined), the EC50 is more than 200 µM and the IC50 amounted to 43.7 µM.
In the case of `CCN(CC)c1ccc(C(=C2C=CC(=[N+](CC)CC)C=C2)c2ccccc2)cc1`, the result was inactive.
`COc1ccc(C(=O)c2ccc(OC)c(S(=O)(=O)n3ccnc3)c2)cc1S(=O)(=O)n1ccnc1`: the EC50 is more than 35.5 µM and the IC50 was 32.4 µM.
For the molecule `Cc1cc(-n2c(/C=C/c3ccc(Cl)cc3)nc3cc(Cl)ccc3c2=O)on1`, the EC50 is more than 50.1 µM and the concentration for half-maximal inhibition (IC50) is more than 50.1 µM.
On to `CC(=O)OC1(C)C2c3ccccc3C(c3ccccc32)C1(C)C` (centres undefined), for which the EC50 was more than 85.1 µM and the IC50 is more than 85.1 µM.
Consider `COc1ccc(C2Oc3c(c(O)cc4c3[C@H](c3ccc(O)cc3O)[C@H](O)C(c3ccc(O)c(O)c3)O4)C[C@@H]2O)cc1O` (some centres undefined), for which the outcome was inactive.
As to `COC1OC2COC(C)(C)OC2C2OC(C)(C)OC12` (centres undefined), the EC50 was more than 200 µM and the IC50 stood at 182 µM.
`C(=C\C(SCc1ccccc1)SCc1ccccc1)/c1ccccc1`: the EC50 is more than 200 µM and the IC50 was more than 200 µM.
In the case of `O=C(O)Cn1cc([N+](=O)[O-])c(=O)c2ccccc21`, the EC50 was more than 200 µM and the 50% inhibitory concentration (IC50) is more than 200 µM.
In the case of `c1ccc(C(NC2=NCCO2)C2CC2)cc1` (centres undefined), the EC50 was more than 200 µM and the IC50 was found to be 45.7 µM.
Regarding `O=C(Nc1ccc(Oc2ccc(Cl)cc2)c(Cl)c1)c1cc(I)cc(I)c1O`, the EC50 was more than 200 µM and the 50% inhibitory concentration (IC50) stood at 11.5 µM.
Turning to `CC1CNc2cccc3[nH]c(=S)n(c23)C1` (centres undefined), the EC50 was more than 200 µM and the IC50 is more than 200 µM.
Consider `N#C[C@H](C(=O)c1ccccc1F)c1nc2ccccc2s1`, for which the EC50 is more than 200 µM and the IC50 stood at 93.3 µM.
In the case of `CC(=O)Nc1ccc(C(=O)N2N=C(C)/C(=C/c3cccc(O)c3)C2=O)cc1`, the EC50 was more than 138 µM and the IC50 was more than 138 µM.
Consider `CC(=O)ON1CCC(n2cc(C)c(=O)[nH]c2=O)C1` (centres undefined), for which the EC50 was more than 200 µM and the IC50 is more than 200 µM.
As to `CC(CCC(C)OS(=O)(=O)c1ccc(F)cc1)OS(=O)(=O)c1ccc(F)cc1` (centres undefined), the outcome was inactive.
In the case of `Fc1cccc2c(=S)cn[nH]c12`, the EC50 is more than 200 µM and the IC50 was 186 µM.
With `CC(=O)OCSc1ncnc2c1ncn2CN1CCOCC1`, the EC50 is more than 776 µM and the half-maximal inhibitory concentration (IC50) worked out at 0.575 µM.
Consider `O=C(NC(=O)c1ccccc1)NC(=O)c1ccccc1`, for which the EC50 was more than 135 µM and the IC50 is more than 135 µM.
`O=C1NC2C(=O)N(Cc3ccccc3)C(=O)C2N1` (centres undefined): the EC50 is more than 29.5 µM and the IC50 is more than 29.5 µM.
In the case of `COc1cc(N=NN(C)C)c(C(C)c2c3cc(OC)c(OC)cc3cc[n+]2C)cc1OC` (centres undefined), the EC50 was more than 200 µM and the IC50 was determined as 20.9 µM.
For `O=[N+]([O-])c1cc(C=NC23CC4CC(CC(C4)C2)C3)ccc1Cl`, in that order: more than 200 µM and 3.72 µM.
In the case of `N#CNC(N)=NCCO`, the EC50 was more than 692 µM and the 50% inhibitory concentration (IC50) is more than 692 µM.
As to `CCc1nnc(CC)n1N1C(=O)CCC1=O`, the EC50 is more than 200 µM and the IC50 was more than 200 µM.
As for `CC(=NCCN(CCN=C(C)c1c(O)cc(C)oc1=O)CCN=C(C)c1c(O)cc(C)oc1=O)c1c(O)cc(C)oc1=O`, the EC50 was more than 200 µM and the IC50 was more than 200 µM.
As for `CC(=O)N(C(C)=O)n1c(Cc2ccc(C)cc2)nn(C(C)=O)c1=O`, the EC50 was more than 200 µM and the IC50 was more than 200 µM.
As to `NC(=S)N/N=C1\CCCCC1C(O)(C(F)(F)Cl)C(F)(F)Cl` (centres undefined), the EC50 is more than 200 µM and the IC50 was more than 200 µM.
On to `CC(=O)NC(CCC(=O)c1ccc(C)cc1)(C(=O)O)C(=O)O`, for which the EC50 was more than 200 µM and the IC50 was more than 200 µM.
Take `C=C1CC(c2ccc(OCCCN3C(=O)c4ccccc4C3=O)c(OC)c2)OC1=O` (centres undefined): the EC50 was more than 20 µM and the IC50 is 0.912 µM.
`C[C@H]1C=C2[C@@H]3CC(C)(C(=O)O)CC[C@]3(C)CC[C@]2(C)[C@]2(C)CC[C@H]3C(C)(C)[C@@H](OC(=O)c4cccc5c(=O)c6ccccc6[nH]c45)CC[C@]3(C)[C@@H]12` (some centres undefined): the EC50 was more than 100 µM and the IC50 worked out at 35.5 µM.
`CCCCCCC(=O)C(O)C(O)C(=O)CCCCCCCC(=O)O` (centres undefined): the EC50 was more than 200 µM and the IC50 turned out to be 97.7 µM.
Take `N#Cc1ccc(C=C2C(=O)NC(=O)NC2=O)cc1`: the EC50 is more than 209 µM and the IC50 came out at 107 µM.
On to `O=C(Nc1ccc(Sc2ccc(N=Nc3c(O)c(S(=O)(=O)O)cc4cc(S(=O)(=O)O)ccc34)cc2)cc1)c1ccc(N=Nc2ccc3c(S(=O)(=O)O)cccc3c2O)cc1`, for which the result was inactive.
On to `CCC(O)C1Cc2c(C)cc3c(c2O1)C(=O)c1ccccc1C3=O` (centres undefined), for which the result was inactive.
Consider `NC(Cc1ccc2nc3c4ccccc4c(=O)cc-3oc2c1)C(=O)O` (centres undefined), for which the EC50 was more than 200 µM and the IC50 was determined as 34.7 µM.
Consider `O=C1Cc2c(-c3ccccc3)cc(-c3ccccc3)nc2-c2ccccc2N1`, for which the EC50 was more than 200 µM and the IC50 is 6.17 µM.
Consider `CC[C@@]1(O)C(=O)OCc2c1cc1n(c2=O)Cc2cc3cc(OC)ccc3nc2-1`, for which the EC50 was more than 0.1 µM and the half-maximal inhibitory concentration (IC50) was 0.0186 µM.
As to `CCOC(=O)C(=Cc1cccnc1C)C(=O)OCC`, the EC50 is more than 692 µM and the IC50 was found to be 8.32 µM.
With `CCCCNC(=O)Sc1ccccc1C(=O)N[C@H](C)C(N)=O`, the EC50 is 1.12 µM and the 50% inhibitory concentration (IC50) turned out to be 112 µM.
Consider `CCOCCOC(=O)C1CCC(=O)N1CN(C(C)=O)c1cc(OC)ccc1OC` (centres undefined), for which the outcome was inactive.
`COC(=O)C(=O)C(C(=O)C(=O)Nc1ccc(Cl)cc1C)c1nc2ccc(C(=O)c3ccccc3)cc2[nH]c1=O` (centres undefined): the outcome was inactive.
With `COc1ccc(C2c3cc4c(cc3OC(N3CCCCC3)C2C)OCO4)cc1` (centres undefined), the EC50 was more than 200 µM and the IC50 was more than 200 µM.
For the molecule `CC1=NN(C(=O)c2ccccc2O)C(=O)/C1=C/c1ccc(O)cc1`, the EC50 was more than 30.9 µM and the IC50 amounted to 0.0589 µM.
Consider `CC(=O)NC1C(OC2C(CO)OC(OCC3OC(n4ccc(N)nc4=O)C(O)C3O)C(NC(C)=O)C2O)OC(CO)C(O)C1O` (centres undefined), for which the EC50 was more than 200 µM and the IC50 came to 11.2 µM.
`CC(/C=N\NC(=S)N(C)C)=N/NC(=S)N(C)C`: the EC50 was more than 2 µM and the IC50 turned out to be 0.347 µM.
Take `O=C(O)Cc1ccc2c(c1)sc1nc(-c3ccc(Br)cc3)cn12`: the EC50 is more than 200 µM and the IC50 was 141 µM.
For `CCOC(=O)C(NC(=O)c1ccccc1)(Nc1ccc(S(=O)(=O)Nc2ccc(OC)nn2)cc1)C(F)(F)F` (centres undefined), the EC50 is more than 200 µM and the IC50 is more than 200 µM.
With `Cc1cn(C2OC(CO)(C(F)(F)F)C(O)C2O)c(=O)[nH]c1=O` (centres undefined), the EC50 was more than 200 µM and the IC50 is more than 200 µM.
Consider `BrC(/C=N/Nc1nnc(-c2ccccc2)c(-c2ccccc2)n1)C(Br)c1ccccc1` (centres undefined), for which the EC50 is more than 13.5 µM and the IC50 is more than 13.5 µM.
With `O=[N+]([O-])/C(C(Cl)=C(Cl)Cl)=C1\NCCO1`, the EC50 was more than 200 µM and the concentration for half-maximal inhibition (IC50) came out at 115 µM.
In the case of `Cn1c(=N)c(C#N)c2n(c1=S)CCCCCCC2`, the EC50 was more than 200 µM and the concentration for half-maximal inhibition (IC50) came to 97.7 µM.
For `O=C(O)c1nc(-c2ccccc2)ncc1-c1nnnn1-c1ccccc1`, in that order: more than 200 µM and more than 200 µM.
On to `C=CCN(c1cc(OC)c2[nH]cc(C)c2c1[N+](=O)[O-])S(C)(=O)=O`, for which the EC50 was 97.7 µM and the IC50 was more than 100 µM.
As for `CCOC1C2c3cc4c(cc3CC(C#N)(c3ccccc32)N1C(=O)c1ccccc1)OCO4` (centres undefined), the outcome was inactive.
As to `NC(CSP(=O)(O)O)=NCC12CC3CC(CC(C3)C1)C2`, the result was inactive.
`Sc1nc2ccccc2s1.Sc1nc2ccccc2s1.Sc1nc2ccccc2s1.Sc1nc2ccccc2s1.[Cl][Rh][Cl]`: the EC50 was more than 151 µM and the IC50 stood at 2.95 µM.
In the case of `CCOC(=O)c1cc2c(OC(C)=O)ccc(OC(C)=O)c2s1`, the EC50 is more than 2 µM and the IC50 is 0.0794 µM.
Consider `N=C(N)SCCc1ccncc1`, for which the EC50 is more than 200 µM and the half-maximal inhibitory concentration (IC50) is 155 µM.
As to `Cc1nn2c(=O)c([N+](=O)[O-])c(/C=C/c3ccccc3)nc2s1`, the EC50 was more than 200 µM and the IC50 came to 3.31 µM.
Turning to `O=c1cc(N2CCOCC2)n2ccccc2n1`, the EC50 was more than 200 µM and the IC50 is more than 200 µM.
Turning to `O=C(NC(=O)c1c(F)cccc1F)Nc1ncc(Cl)cc1Cl`, the EC50 is more than 200 µM and the IC50 is more than 200 µM.
Regarding `CC(=O)OC(C#N)CC(C)(C)/[N+]([O-])=[N+](\[O-])C(C)(C)CC(C#N)OC(C)=O` (centres undefined), the EC50 was more than 20 µM and the IC50 came to 3.63 µM.
As for `S=c1cn[nH]c2ccc(S)cc12`, the EC50 is more than 182 µM and the half-maximal inhibitory concentration (IC50) was determined as 102 µM.
Consider `CC(C)NS(=O)(=O)c1ncnc2nc[nH]c12`, for which the outcome was inactive.

Source of the values: PubChem BioAssay AID179 (DTP/NCI, 2004).
